{
  "source": "paper PMC3574204",
  "about": "(Bioorganic & medicinal chemistry, 2013)",
  "key": {"[1]": {"test": "Whole animal toxicity assay", "type": "in vivo"}, "VEGFR-2": {"molecular_target": "VEGFR-2 (Homo sapiens, UniProt P35968)", "sequence (P35968 20-1356)": "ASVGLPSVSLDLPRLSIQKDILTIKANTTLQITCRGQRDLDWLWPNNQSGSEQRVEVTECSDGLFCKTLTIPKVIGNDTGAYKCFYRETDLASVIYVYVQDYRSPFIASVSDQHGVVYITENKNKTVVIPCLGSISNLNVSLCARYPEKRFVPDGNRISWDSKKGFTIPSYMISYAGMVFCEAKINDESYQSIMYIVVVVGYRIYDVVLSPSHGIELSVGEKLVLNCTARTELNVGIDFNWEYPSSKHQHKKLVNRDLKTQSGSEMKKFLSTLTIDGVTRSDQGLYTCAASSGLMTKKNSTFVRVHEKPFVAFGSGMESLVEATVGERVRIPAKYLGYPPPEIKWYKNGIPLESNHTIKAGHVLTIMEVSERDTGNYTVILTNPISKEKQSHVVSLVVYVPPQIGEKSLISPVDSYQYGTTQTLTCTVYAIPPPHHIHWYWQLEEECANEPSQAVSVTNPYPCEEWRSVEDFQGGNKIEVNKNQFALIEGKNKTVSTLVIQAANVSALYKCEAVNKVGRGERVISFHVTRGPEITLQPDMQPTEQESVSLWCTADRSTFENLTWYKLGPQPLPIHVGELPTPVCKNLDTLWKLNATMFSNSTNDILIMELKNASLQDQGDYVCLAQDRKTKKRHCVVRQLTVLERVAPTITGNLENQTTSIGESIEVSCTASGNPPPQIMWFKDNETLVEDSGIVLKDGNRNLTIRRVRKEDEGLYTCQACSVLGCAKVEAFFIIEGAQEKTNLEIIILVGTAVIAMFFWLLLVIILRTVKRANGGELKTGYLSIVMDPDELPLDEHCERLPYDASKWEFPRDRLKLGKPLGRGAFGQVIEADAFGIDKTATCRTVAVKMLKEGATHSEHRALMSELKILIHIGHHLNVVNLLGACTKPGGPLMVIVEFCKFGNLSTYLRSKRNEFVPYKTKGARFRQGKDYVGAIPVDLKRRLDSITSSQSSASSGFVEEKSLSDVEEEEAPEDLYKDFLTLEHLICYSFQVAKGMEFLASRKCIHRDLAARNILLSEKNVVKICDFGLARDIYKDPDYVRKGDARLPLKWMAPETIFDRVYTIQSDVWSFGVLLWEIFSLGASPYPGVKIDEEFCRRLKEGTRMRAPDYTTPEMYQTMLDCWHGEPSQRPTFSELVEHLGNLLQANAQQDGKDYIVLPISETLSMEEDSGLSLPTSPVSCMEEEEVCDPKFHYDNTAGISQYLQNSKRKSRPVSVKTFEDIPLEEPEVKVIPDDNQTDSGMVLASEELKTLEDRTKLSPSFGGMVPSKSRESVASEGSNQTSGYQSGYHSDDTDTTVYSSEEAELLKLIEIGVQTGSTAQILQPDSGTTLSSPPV", "test": "Phosphotyrosine ELISA cytoblot, VEGFR-2"}, "[2]": {"test_system": "chicken embryo chorioallantoic membrane (CAM)", "test": "CAM assay of angiogenesis", "conditions": "in vivo"}, "EGFR": {"molecular_target": "EGFR (Homo sapiens, UniProt P00533)", "sequence (P00533 25-1210)": "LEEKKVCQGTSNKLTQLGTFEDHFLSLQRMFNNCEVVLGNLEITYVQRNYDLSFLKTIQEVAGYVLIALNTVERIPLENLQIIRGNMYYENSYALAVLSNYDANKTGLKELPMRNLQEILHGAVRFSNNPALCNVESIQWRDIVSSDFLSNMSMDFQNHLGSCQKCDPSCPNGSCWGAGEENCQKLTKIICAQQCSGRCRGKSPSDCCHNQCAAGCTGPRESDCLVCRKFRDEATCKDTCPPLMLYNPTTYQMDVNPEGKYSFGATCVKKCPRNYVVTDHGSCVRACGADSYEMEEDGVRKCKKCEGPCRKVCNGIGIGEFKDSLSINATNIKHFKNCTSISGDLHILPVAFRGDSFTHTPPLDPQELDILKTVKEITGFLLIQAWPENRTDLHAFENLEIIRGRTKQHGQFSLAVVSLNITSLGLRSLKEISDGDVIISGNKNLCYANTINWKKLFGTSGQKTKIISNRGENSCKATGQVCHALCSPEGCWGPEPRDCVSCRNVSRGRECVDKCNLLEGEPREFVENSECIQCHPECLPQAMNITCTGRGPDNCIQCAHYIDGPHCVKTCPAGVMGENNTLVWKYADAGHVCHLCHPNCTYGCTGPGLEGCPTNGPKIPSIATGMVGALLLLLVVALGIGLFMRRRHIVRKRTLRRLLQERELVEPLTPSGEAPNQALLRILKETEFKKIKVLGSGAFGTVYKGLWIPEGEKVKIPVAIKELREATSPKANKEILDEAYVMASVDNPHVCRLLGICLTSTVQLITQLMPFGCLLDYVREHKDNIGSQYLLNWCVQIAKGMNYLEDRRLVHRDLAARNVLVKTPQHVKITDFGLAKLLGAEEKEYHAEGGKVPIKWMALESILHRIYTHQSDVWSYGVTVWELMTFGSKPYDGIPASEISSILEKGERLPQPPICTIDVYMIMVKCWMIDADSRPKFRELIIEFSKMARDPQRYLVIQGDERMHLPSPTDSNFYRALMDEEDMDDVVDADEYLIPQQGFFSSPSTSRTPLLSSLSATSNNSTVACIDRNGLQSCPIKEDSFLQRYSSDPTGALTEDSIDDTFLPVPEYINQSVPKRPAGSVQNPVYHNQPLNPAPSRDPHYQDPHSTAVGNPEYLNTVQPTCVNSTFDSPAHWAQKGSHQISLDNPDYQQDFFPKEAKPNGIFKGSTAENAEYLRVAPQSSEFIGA", "test": "Phosphotyrosine ELISA cytoblot, EGFR inhibition in A431 cells", "conditions": "for EGFR inhibition improved, fold compared to the corresponding 2-amino analog: 14 vs 8, 15 vs 9, 17 vs 11"}, "[3]": {"test_system": "B16-F10 mouse melanoma tumors", "test": "B16-F10 syngeneic tumor model", "type": "in vivo, athymic NCr nu/nu male mice", "conditions": "10 mg/kg IP twice weekly"}},
  "data": [
    {"smiles": "Nc1nc(Nc2ccc(F)c(Br)c2)c2cc(CCc3ccccn3)[nH]c2n1", "note": "[Compound 8, N^4-(3-bromo,4-fluorophenyl)-6-(2-pyridin-2-yl-ethyl)-7H-pyrrolo[2,3-d]pyrimidine-2,4-diamine]", "values": [
      {"measurement": "weight loss", "setting": "[1]; 7.5 or 10 mg/kg twice weekly, compared to untreated", "result": "no weight loss"},
      {"measurement": "weight loss", "setting": "[1]; 20, 17, and 15 mg/kg twice weekly, 6 week time point", "result": "significant"},
      {"measurement": "VEGFR-2 inhibition, fold improvement in activity compared to 7", "setting": "VEGFR-2", "result": 2, "unit": "fold"},
      {"measurement": "CAM angiogenesis assay, fold better than semaxanib (27)", "setting": "[2]", "result": 1.2, "unit": "fold"}
    ]},
    {"smiles": "CC(C)(C)C(=O)Nc1nc(Nc2ccc(F)c(Cl)c2)c2cc(CCc3ccccn3)[nH]c2n1", "note": "[Compound 15, N-{4-[(3-chloro,4-fluorophenyl)amino]-6-(2-pyridin-2-yl-ethyl)-7H-pyrrolo[2,3-d]pyrimidin-2-yl}-2,2-dimethylpropanamide]", "values": [
      {"measurement": "EGFR inhibition improved, fold compared to the corresponding 2-amino analog", "setting": "EGFR", "result": 6.5, "unit": "fold"}
    ]},
    {"smiles": "CC(C)(C)C(=O)Nc1nc(Nc2ccc(F)c(C(F)(F)F)c2)c2cc(CCc3ccccn3)[nH]c2n1", "note": "[Compound 18, N-{4-[(3-trifluoromethyl,4-fluorophenyl)amino]-6-(2-pyridin-2-yl-ethyl)-7H-pyrrolo[2,3-d]pyrimidin-2-yl}-2,2-dimethylpropanamide]", "values": [
      {"measurement": "EGFR inhibition, fold less active than 12", "setting": "EGFR", "result": 1.7, "unit": "fold"}
    ]},
    {"smiles": "C#Cc1cccc(Nc2nc(NC(=O)C(C)(C)C)nc3[nH]c(CCc4ccccn4)cc23)c1", "note": "[Compound 16, N-{4-[(3-ethynylphenyl)amino]-6-(2-pyridin-2-yl-ethyl)-7H-pyrrolo[2,3-d]pyrimidin-2-yl}-2,2-dimethylpropanamide]", "values": [
      {"measurement": "EGFR inhibitory assay, result in words", "setting": "EGFR", "result": "inactive"}
    ]},
    {"smiles": "CC(C)(C)C(=O)Nc1nc(Nc2cccc(C(F)(F)F)c2)c2cc(CCc3ccccn3)[nH]c2n1", "note": "[Compound 17, N-{4-[(3-trifluoromethylphenyl)amino]-6-(2-pyridin-2-yl-ethyl)-7H-pyrrolo[2,3-d]pyrimidin-2-yl}-2,2-dimethylpropanamide]", "values": [
      {"measurement": "EGFR inhibition improved, fold compared to the corresponding 2-amino analog", "setting": "EGFR", "result": 1.4, "unit": "fold"}
    ]},
    {"smiles": "CC(C)(C)C(=O)Nc1nc(Nc2ccc(F)c(Br)c2)c2cc(CCc3ccccn3)[nH]c2n1", "note": "[Compound 14, N-{4-[(3-bromo,4-fluorophenyl)amino]-6-(2-pyridin-2-yl-ethyl)-7H-pyrrolo[2,3-d]pyrimidin-2-yl}the-2,2-dimethylpropanamide]", "values": [
      {"measurement": "EGFR inhibition improved, fold compared to the corresponding 2-amino analog", "setting": "EGFR", "result": 16, "unit": "fold"}
    ]},
    {"smiles": "CN(Cc1cnc2nc(N)nc(N)c2n1)c1ccc(C(=O)N[C@@H](CCC(=O)O)C(=O)O)cc1", "note": "[MTX, methotrexate]", "values": [
      {"measurement": "B16-F10 primary tumor growth", "setting": "[3]", "result": "slightly better at inhibiting primary tumor growth as compared to 8"},
      {"measurement": "decrease in vascular density of B16-F10 tumors", "setting": "[3]; compared to solvent treated animals", "result": "statistically significant"},
      {"measurement": "tumor volume", "setting": "[3]; compared to untreated animals", "result": "significantly less increase in tumor volume"}
    ]}
  ]
}
